Data from ChEMBL document CHEMBL1201862, “PubChem BioAssay data set” (2004).
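Grown in 96-well plates, cells were treated for 48 hours with each compound at five concentrations. Insufficient inhibition: endpoint recorded as highest concentration tested. GI50: concentration for 50% inhibition of growth.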 Active and inactive are the calls of the source. Cut-off read from the data, not from the text of the source: active = GI50 up to about 1.1 µM and inactive = higher.

Key:
Experiment in all cases: NCI-60 cell line screen, 48 h
786-0 = tested on: 786-0
A498 = tested on: A498
A549 = tested on: A549
ACHN = tested on: ACHN
BT-549 = tested on: BT-549
CAKI-1 = tested on: CAKI-1
CCRF-CEM = tested on: CCRF-CEM
COLO 205 = tested on: COLO 205
DU-145 = tested on: DU-145
EKVX = tested on: EKVX
HCC 2998 = tested on: HCC 2998
HCT-116 = tested on: HCT-116
HCT-15 = tested on: HCT-15
HL-60 = tested on: HL-60
HOP-62 = tested on: HOP-62
HOP-92 = tested on: HOP-92
HT-29 = tested on: HT-29
Hs-578T = tested on: Hs-578T
IGROV-1 = tested on: IGROV-1
K562 = tested on: K562
KM12 = tested on: KM12
LOX IMVI = tested on: LOX IMVI
M14 = tested on: M14
MCF7 = tested on: MCF7
MDA-MB-231 = tested on: MDA-MB-231
MDA-MB-435 = tested on: MDA-MB-435
MDA-N = tested on: MDA-N
MOLT-4 = tested on: MOLT-4
Malme-3M = tested on: Malme-3M
NCI-H226 = tested on: NCI-H226
NCI-H23 = tested on: NCI-H23
NCI-H460 = tested on: NCI-H460
NCI-H522 = tested on: NCI-H522
NCI/ADR-RES = tested on: NCI/ADR-RES
OVCAR-3 = tested on: OVCAR-3
OVCAR-4 = tested on: OVCAR-4
OVCAR-5 = tested on: OVCAR-5
OVCAR-8 = tested on: OVCAR-8
PC-3 = tested on: PC-3
RPMI-8226 = tested on: RPMI-8226
RXF 393 = tested on: RXF 393
SF-268 = tested on: SF-268
SF-295 = tested on: SF-295
SF-539 = tested on: SF-539
SK-MEL-28 = tested on: SK-MEL-28
SK-MEL-2 = tested on: SK-MEL-2
SK-MEL-5 = tested on: SK-MEL-5
SK-OV-3 = tested on: SK-OV-3
SN12C = tested on: SN12C
SNB-19 = tested on: SNB-19
SNB-75 = tested on: SNB-75
SR = tested on: SR
SW-620 = tested on: SW-620
T47D = tested on: T47D
TK-10 = tested on: TK-10
U-251 = tested on: U-251
UACC-257 = tested on: UACC-257
UACC-62 = tested on: UACC-62
UO-31 = tested on: UO-31

SMILES: O=C(CC(c1ccccc1)c1c(O)c2ccccc2oc1=O)c1ccccc1 (stereo not drawn)
- GI50 (786-0): > 100 µM (inactive)
- GI50 (A498): > 61.9 µM (inactive)
- GI50 (A549): 54.6 µM (inactive)
- GI50 (ACHN): 98.4 µM (inactive)
- GI50 (BT-549): 49.5 µM (inactive)
- GI50 (CAKI-1): 21.2 µM (inactive)
- GI50 (CCRF-CEM): 59.7 µM (inactive)
- GI50 (COLO 205): 59.7 µM (inactive)
- GI50 (DU-145): > 89.1 µM (inactive)
- GI50 (EKVX): 72.1 µM (inactive)
- GI50 (HCC 2998): 93.3 µM (inactive)
- GI50 (HCT-116): > 84.5 µM (inactive)
- GI50 (HCT-15): 78.9 µM
- GI50 (HL-60): 90.2 µM (inactive)
- GI50 (HOP-62): > 100 µM (inactive)
- GI50 (HOP-92): > 44.3 µM (inactive)
- GI50 (HT-29): > 94.8 µM (inactive)
- GI50 (Hs-578T): > 69.5 µM (inactive)
- GI50 (IGROV-1): > 100 µM (inactive)
- GI50 (K562): 61.5 µM (inactive)
- GI50 (KM12): > 100 µM (inactive)
- GI50 (LOX IMVI): > 67.8 µM (inactive)
- GI50 (M14): > 100 µM (inactive)
- GI50 (MCF7): > 85.9 µM (inactive)
- GI50 (MDA-MB-231): > 100 µM (inactive)
- GI50 (MDA-MB-435): 72.6 µM (inactive)
- GI50 (MDA-N): > 84.5 µM (inactive)
- GI50 (MOLT-4): 84.9 µM (inactive)
- GI50 (Malme-3M): > 84.9 µM (inactive)
- GI50 (NCI-H226): 71.9 µM (inactive)
- GI50 (NCI-H23): 53.3 µM (inactive)
- GI50 (NCI-H460): 65.5 µM (inactive)
- GI50 (NCI-H522): 47 µM (inactive)
- GI50 (NCI/ADR-RES): 54.2 µM (inactive)
- GI50 (OVCAR-3): 30.4 µM (inactive)
- GI50 (OVCAR-4): 56.1 µM (inactive)
- GI50 (OVCAR-5): > 100 µM (inactive)
- GI50 (OVCAR-8): > 100 µM (inactive)
- GI50 (PC-3): > 93.3 µM (inactive)
- GI50 (RPMI-8226): 56.1 µM (inactive)
- GI50 (RXF 393): > 53.1 µM (inactive)
- GI50 (SF-268): > 100 µM (inactive)
- GI50 (SF-295): > 76.7 µM (inactive)
- GI50 (SF-539): > 100 µM (inactive)
- GI50 (SK-MEL-28): 72.1 µM (inactive)
- GI50 (SK-MEL-2): > 92.3 µM (inactive)
- GI50 (SK-MEL-5): > 100 µM (inactive)
- GI50 (SK-OV-3): 67.9 µM (inactive)
- GI50 (SN12C): > 87.9 µM (inactive)
- GI50 (SNB-19): > 95.7 µM (inactive)
- GI50 (SNB-75): > 47.5 µM (inactive)
- GI50 (SR): 44.6 µM (inactive)
- GI50 (SW-620): > 100 µM (inactive)
- GI50 (T47D): 58.1 µM (inactive)
- GI50 (TK-10): > 100 µM (inactive)
- GI50 (U-251): > 100 µM (inactive)
- GI50 (UACC-257): > 83.9 µM (inactive)
- GI50 (UACC-62): 38.4 µM (inactive)
- GI50 (UO-31): 98.4 µM (inactive)

SMILES: COC(=O)c1cc(C#N)[nH]c1-c1cc(Br)cs1
- GI50 (786-0): 19.1 µM (inactive)
- GI50 (A498): 4.97 µM (inactive)
- GI50 (A549): 10.5 µM (inactive)
- GI50 (ACHN): 19.6 µM (inactive)
- GI50 (BT-549): 12.9 µM (inactive)
- GI50 (CAKI-1): 17.5 µM (inactive)
- GI50 (CCRF-CEM): 13.8 µM (inactive)
- GI50 (COLO 205): 14.3 µM (inactive)
- GI50 (DU-145): 13.3 µM (inactive)
- GI50 (EKVX): 16.1 µM (inactive)
- GI50 (HCC 2998): > 41.7 µM (inactive)
- GI50 (HCT-116): 12.8 µM (inactive)
- GI50 (HCT-15): 15.1 µM
- GI50 (HL-60): 13.2 µM (inactive)
- GI50 (HOP-62): 11.1 µM (inactive)
- GI50 (HOP-92): 3.61 µM (inactive)
- GI50 (HT-29): 14.2 µM (inactive)
- GI50 (Hs-578T): 14.5 µM (inactive)
- GI50 (IGROV-1): 13.4 µM (inactive)
- GI50 (K562): 20.3 µM (inactive)
- GI50 (KM12): 20.7 µM (inactive)
- GI50 (LOX IMVI): 11.3 µM (inactive)
- GI50 (M14): 14.3 µM (inactive)
- GI50 (MCF7): 7.24 µM (inactive)
- GI50 (MDA-MB-231): 20.2 µM (inactive)
- GI50 (MDA-MB-435): 13.3 µM (inactive)
- GI50 (MDA-N): 15.4 µM (inactive)
- GI50 (MOLT-4): 17.9 µM (inactive)
- GI50 (Malme-3M): 10.8 µM (inactive)
- GI50 (NCI-H226): 10.9 µM (inactive)
- GI50 (NCI-H23): 6.67 µM (inactive)
- GI50 (NCI-H460): 19.8 µM (inactive)
- GI50 (NCI-H522): 2.1 µM (inactive)
- GI50 (NCI/ADR-RES): 13.4 µM (inactive)
- GI50 (OVCAR-3): 4.78 µM (inactive)
- GI50 (OVCAR-4): 4.54 µM (inactive)
- GI50 (OVCAR-5): 16.3 µM (inactive)
- GI50 (OVCAR-8): 14.7 µM (inactive)
- GI50 (PC-3): 12.2 µM (inactive)
- GI50 (RPMI-8226): 7.55 µM (inactive)
- GI50 (RXF 393): 5.32 µM (inactive)
- GI50 (SF-268): 17.7 µM (inactive)
- GI50 (SF-295): 10 µM (inactive)
- GI50 (SF-539): 14.3 µM (inactive)
- GI50 (SK-MEL-28): 14.5 µM (inactive)
- GI50 (SK-MEL-2): 12.8 µM (inactive)
- GI50 (SK-MEL-5): 7.73 µM (inactive)
- GI50 (SK-OV-3): 13.4 µM (inactive)
- GI50 (SN12C): 14.9 µM (inactive)
- GI50 (SNB-19): 15 µM (inactive)
- GI50 (SNB-75): 2.69 µM (inactive)
- GI50 (SR): 24.9 µM (inactive)
- GI50 (SW-620): 17.7 µM (inactive)
- GI50 (T47D): 2.13 µM (inactive)
- GI50 (TK-10): 20.3 µM (inactive)
- GI50 (U-251): 13.3 µM (inactive)
- GI50 (UACC-257): 11.4 µM (inactive)
- GI50 (UACC-62): 15.8 µM (inactive)
- GI50 (UO-31): 10 µM (inactive)
